In the supplement of paper PMC10627819:

Legend:
Experiment in all cases: fitness (endpoint OD595 vs no drug) (fraction); higher = more growth
S. aureus DSM 20231 = system: S. aureus DSM 20231
Summary of the method: (§1)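 Fitness is computed from the optical density at which cultures reach stationary phase, divided by the robust mean of no-drug control wells. Any value above 1 is set to 1. Cultures started at OD595 0.01 in 384-well plates with TSB, LB Lennox or CY at 37 °C, and OD595 was read every 30 min for 14 h against a first-reading background.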

S. aureus Newman = system: S. aureus Newman
Summary of the method: as §1

B. subtilis 168 = system: B. subtilis 168
Summary of the method: as §1

S. pneumoniae D39V = system: S. pneumoniae D39V
Summary of the method: as §1
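Also: OD595 on entry to stationary phase over no-drug wells; at most 1.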

N[C@@H]1CONC1=O [Cycloserine D] + Cc1cc(NS(=O)(=O)c2ccc(N)cc2)no1 [Sulfamethoxazol]
fitness
Conditions | first compound 0.125 µg/mL | first compound 0.25 µg/mL | first compound 0.375 µg/mL | first compound 0.5 µg/mL | first compound 0.75 µg/mL | first compound 1.5 µg/mL
B. subtilis 168, partner 1 µg/mL | 0.941 | 0.933 | – | 0.868 | – | –
B. subtilis 168, partner 2 µg/mL | 0.869 | 0.896 | – | 0.929 | – | –
B. subtilis 168, partner 4 µg/mL | 0.951 | 0.931 | – | ≥ 1 | – | –
S. aureus DSM 20231, partner 1 µg/mL | – | – | ≥ 1 | – | ≥ 1 | 0.93
S. aureus DSM 20231, partner 2 µg/mL | – | – | ≥ 1 | – | 0.913 | 0.982
S. aureus DSM 20231, partner 4 µg/mL | – | – | ≥ 1 | – | 0.929 | ≥ 1
S. aureus Newman, partner 1 µg/mL | – | – | 0.997 | – | 0.979 | 0.949
S. aureus Newman, partner 2 µg/mL | – | – | ≥ 1 | – | ≥ 1 | ≥ 1
S. aureus Newman, partner 4 µg/mL | – | – | ≥ 1 | – | ≥ 1 | ≥ 1

fitness, one replicate
Conditions | first compound 0.125 µg/mL | first compound 0.25 µg/mL | first compound 0.375 µg/mL | first compound 0.5 µg/mL | first compound 0.75 µg/mL | first compound 1.5 µg/mL
B. subtilis 168, partner 0.5 µg/mL | 0.939 | 0.993 | – | 0.977 | – | –
S. aureus Newman, partner 8 µg/mL | – | – | ≥ 1 | – | ≥ 1 | ≥ 1

N[C@@H]1CONC1=O [Cycloserine D] + Cc1ncc([N+](=O)[O-])n1CCO [Metronidazole]
fitness
Conditions | partner 0.625 µg/mL | partner 0.781 µg/mL | partner 1.25 µg/mL | partner 1.562 µg/mL | partner 2.5 µg/mL | partner 3.124 µg/mL
B. subtilis 168, first compound 0.125 µg/mL | 0.948 | – | 0.913 | – | 0.937 | –
B. subtilis 168, first compound 0.25 µg/mL | – | – | 0.841 | – | 0.868 | –
B. subtilis 168, first compound 0.5 µg/mL | 0.933 | – | 0.921 | – | 0.973 | –
S. aureus DSM 20231, first compound 0.375 µg/mL | ≥ 1 | – | ≥ 1 | – | ≥ 1 | –
S. aureus DSM 20231, first compound 0.75 µg/mL | ≥ 1 | – | ≥ 1 | – | ≥ 1 | –
S. aureus DSM 20231, first compound 1.5 µg/mL | ≥ 1 | – | ≥ 1 | – | ≥ 1 | –
S. aureus Newman, first compound 0.375 µg/mL | 0.969 | 0.959 | ≥ 1 | 0.976 | 0.97 | 0.985
S. aureus Newman, first compound 0.75 µg/mL | 0.929 | ≥ 1 | ≥ 1 | 0.972 | 0.961 | 0.988
S. aureus Newman, first compound 1.5 µg/mL | 0.912 | ≥ 1 | 0.964 | 0.974 | 0.972 | ≥ 1

N[C@@H]1CONC1=O [Cycloserine D] + Cn1nnc(-c2ccc(-c3ccc(N4C[C@H](CO)OC4=O)cc3F)cn2)n1 [Tedizolid]
fitness
Conditions | first compound 0.375 µg/mL | first compound 0.75 µg/mL | first compound 1.5 µg/mL
S. aureus DSM 20231, partner 0.0625 µg/mL | 0.95 | 0.942 | 0.923
S. aureus DSM 20231, partner 0.125 µg/mL | 0.738 | 0.802 | 0.827
S. aureus Newman, partner 0.0625 µg/mL | 0.956 | 0.938 | 0.99
S. aureus Newman, partner 0.125 µg/mL | 0.925 | 0.842 | 0.855

O=C(O[C@@H]1Cc2c(O)cc(O)cc2O[C@@H]1c1cc(O)c(O)c(O)c1)c1cc(O)c(O)c(O)c1 [EGCG] + CO/N=C(\C(=O)N[C@@H]1C(=O)N2C(C(=O)[O-])=C(C[N+]3(C)CCCC3)CS[C@H]12)c1csc(N)n1 [Cefepime]
fitness
Conditions | first compound 12.5 µg/mL | first compound 25 µg/mL | first compound 50 µg/mL
S. aureus DSM 20231, partner 0.125 µg/mL | 0.736 | 0.725 | –
S. aureus DSM 20231, partner 0.25 µg/mL | 0.634 | 0.563 | 0.583
S. aureus DSM 20231, partner 0.5 µg/mL | 0.616 | 0.576 | 0.587
S. aureus Newman, partner 0.125 µg/mL | 0.789 | 0.722 | 0.72
S. aureus Newman, partner 0.25 µg/mL | 0.736 | 0.685 | 0.678
S. aureus Newman, partner 0.5 µg/mL | 0.656 | 0.724 | 0.657
S. pneumoniae D39V, partner 0.007 µg/mL | 0.958 | 0.951 | 0.985
S. pneumoniae D39V, partner 0.0078 µg/mL | ≥ 1 | 0.874 | 0.939
S. pneumoniae D39V, partner 0.014 µg/mL | 0.998 | 0.987 | 0.998
S. pneumoniae D39V, partner 0.0155 µg/mL | 0.96 | ≥ 1 | 0.931
S. pneumoniae D39V, partner 0.028 µg/mL | 0.928 | 0.979 | 0.973
S. pneumoniae D39V, partner 0.031 µg/mL | 0.733 | 0.716 | 0.853

O=C(O[C@@H]1Cc2c(O)cc(O)cc2O[C@@H]1c1cc(O)c(O)c(O)c1)c1cc(O)c(O)c(O)c1 [EGCG] + CO[C@@]12[C@H](COC(N)=O)C3=C(C(=O)C(C)=C(N)C3=O)N1C[C@@H]1N[C@@H]12 [Mitomycin C]
fitness
Conditions | first compound 12.5 µg/mL | first compound 25 µg/mL | first compound 50 µg/mL
S. aureus DSM 20231, partner 0.0156 µg/mL | 0.587 | 0.553 | –
S. aureus DSM 20231, partner 0.0312 µg/mL | 0.595 | 0.574 | –
S. aureus DSM 20231, partner 0.0625 µg/mL | 0.507 | 0.483 | –
S. aureus Newman, partner 0.0156 µg/mL | 0.541 | 0.611 | 0.628
S. aureus Newman, partner 0.0312 µg/mL | 0.547 | 0.528 | 0.488
S. aureus Newman, partner 0.0625 µg/mL | 0.457 | 0.397 | 0.459
S. pneumoniae D39V, partner 0.001075 µg/mL | 0.877 | 0.9 | 0.926
S. pneumoniae D39V, partner 0.002 µg/mL | 0.77 | – | 0.777
S. pneumoniae D39V, partner 0.00215 µg/mL | 0.783 | 0.902 | –
S. pneumoniae D39V, partner 0.004 µg/mL | 0.793 | 0.685 | 0.646
S. pneumoniae D39V, partner 0.0043 µg/mL | – | 0.747 | 0.881
S. pneumoniae D39V, partner 0.008 µg/mL | 0.422 | 0.379 | 0.285

CCCCCCCCCC(=O)N[C@H]1[C@H](Oc2c3cc4cc2Oc2ccc(cc2Cl)[C@@H](O[C@@H]2O[C@H](CO)[C@@H](O)[C@H](O)[C@H]2NC(C)=O)[C@@H]2NC(=O)[C@H](NC(=O)[C@@H]4NC(=O)[C@H]4NC(=O)[C@@H](Cc5ccc(c(Cl)c5)O3)NC(=O)[C@H](N)c3ccc(O)c(c3)Oc3cc(O)cc4c3)c3ccc(O)c(c3)-c3c(O[C@H]4O[C@H](CO)[C@@H](O)[C@H](O)[C@@H]4O)cc(O)cc3[C@@H](C(=O)O)NC2=O)O[C@H](CO)[C@@H](O)[C@@H]1O [Teicoplanin] + Cn1nnc(-c2ccc(-c3ccc(N4C[C@H](CO)OC4=O)cc3F)cn2)n1 [Tedizolid]
fitness, main component drawn
Conditions | first compound 0.1562 µg/mL | first compound 0.3125 µg/mL | first compound 0.625 µg/mL
S. aureus DSM 20231, partner 0.0625 µg/mL | 0.808 | 0.89 | 0.949
S. aureus DSM 20231, partner 0.25 µg/mL | 0.066 | 0.0756 | 0.1
S. aureus Newman, partner 0.0625 µg/mL | ≥ 1 | 0.969 | 0.811
S. aureus Newman, partner 0.125 µg/mL | ≥ 1 | 0.97 | 0.779
S. aureus Newman, partner 0.25 µg/mL | – | 0.391 | 0.163

fitness, S. aureus Newman, one replicate, main component drawn
Conditions | first compound 0.62 µg/mL | first compound 1.24 µg/mL | first compound 2.48 µg/mL
partner 0.0625 µg/mL | 0.883 | 0.789 | 0.474
partner 0.125 µg/mL | 0.853 | 0.812 | 0.627
partner 0.25 µg/mL | 0.447 | 0.402 | 0.361
